Each block holds one compound with its values, some of them ahead of it.
Experiments:
[1] = cited from earlier work
[2] = cystinuria patients; cited from earlier work
[3] = Total bucillamine plasma concentration after oral or intraduodenal dosing regimens; assay type: in vivo, male Beagle dogs; details: n=3 dogs
Procedure: (§1) The objective of this study was to evaluate total and free plasma bucillamine, and urinary bucillamine, in male Beagle dogs following oral and intraduodenal administration of bucillamine, according to various dose regimens, to determine whether different regimens, simulating modified release in accordance with the present invention, would improve drug pharmacokinetics. Specifically, bucillamine formulations were administered to deliver 30 mg/kg per dog via single or multiple doses divided over a 12-hour period; and blood and urine samples then collected at different times post-dose.
(§2) Bucillamine formulations were administered to provide 30 mg/kg per dog according to five different dosage regimens (Leg 1, Leg 2, Leg 3, Leg 4, and Leg 5), as set forth in the table below. Leg 2, Leg 3, and Leg 4 (also referred to as Q6H, Q3H, and Q2H, respectively) were designed to simulate modified-release formulations, in accordance with certain embodiments of the present invention. Following administration, blood and urine samples were collected at the time points, or over the time intervals, also as indicated below.
(§3) Preparation of Dosing Formulations: Capsules for Legs 1-5 were prepared and filled on the day of dosing, as follows. For Legs 1, 2, and 5, bucillamine was dry mixed with avicel and mannitol to make a 40:30:30 mixture of bucillamine to avicel to mannitol, respectively; for study Legs 3 and 4, a 20:40:40 mixture of bucillamine to avicel to mannitol, respectively, was prepared. The dry mixes were custom filled with the appropriate amount of powder to deliver the specified doses to each dog based, on their respective body weights.
(§4) Animal Dosing and Sample Collection: This non-clinical study followed established practices and standard operating procedures of Absorption Systems and Absorption Systems Inc., as well as the study protocol. Study groups each included three dogs. The dogs were housed one per cage. For Legs 1-4, the dogs were fasted for at least six hours prior to each administration of the formulation. For Legs 1-4, food was given approximately ten hours post initial dosing. Animals had free access to water throughout the study. For Leg 5, the dogs were fasted for at least sixteen hours prior to each administration of the formulation. For Leg 5, food was given approximately eight hours post initial dosing. Animals had free access to water throughout the study. Additionally, each dog received a 60 mL subcutaneous injection of saline (a 30 mL injection, into each two different sites) approximately 30 minutes prior to dosing, for hydration.
(§5) Intraduodenal (ID) administration: Animals were anesthetized by a slow IV infusion of Propofol (6-10 mg/kg), or with an intramuscular injection of a cocktail containing ketamine (approximately 10-20 mg/kg), diazepam (3 mg/kg), and acepromazine (0.05 mg/kg) given IM about 5-10 minutes before intubation. Once animals were confirmed adequately anesthetized, they were intubated and maintained using isoflurane (approximately 1-5% in oxygen 1 to 4 L/min) as necessary until dosing was complete. Formulations were administered into the proximal duodenum via endoscopic guidance to verify the dosing site. The endoscope first was maneuvered into the pyloric sphincter with camera visualization of the proximal duodenum. Once there was confirmation that the endoscope was placed between the pylorus and proximal duodenum, the test article was delivered to the proximal duodenum followed by a 5 mL flush. […]

[4] = Example 5: urine cystine in cystinuria dogs, simulated extended-release bucillamine; assay type: in vivo; details: enterically-coated bucillamine 8 times/day, same total daily dosage
Procedure: This Example describes a study to confirm the feasibility of reducing cystine levels in the urine of cystinuria dogs receiving more frequent and lower doses of bucillamine, in a dosing schedule designed to simulate the extended release formulations of the present invention, compared to urine cystine levels in cystinuria dogs receiving non-coated bucillamine. Study Design: Subject dogs are dosed as follows: Day 1: […] Day 2: Repeat Day 1 Day 3: No treatment Day 4: No treatment Day 5: To simulate extended-release, enterically-coated bucillamine is orally administered at lower dose, 8 times/day (i.e., every three hours), to provide a total daily dosage equal to that used in Days 1 and 2. A simple enteric coating is used that avoids release in the stomach. Also, 24 hour urine cystine capacity is measured, that is, all urine over a 24-hour period, starting from the time of the first dose, is collected and used to measure urinary cystine concentration. Day 6: Repeat Day 5

[5] = Short- and long-term stability of bucillamine in Beagle dog urine; assay type: in vitro ADME
Procedure: (§6) For the analysis, analytical stock solutions (1.00 mg/mL of the free drug) were prepared in DMSO. Also, three standards for use in the analysis were prepared in each of the following media, as follows: (1) in male Beagle plasma containing sodium heparin as the anticoagulant; (2) in Beagle plasma that had previously been treated with acetonitrile to precipitate and remove plasma proteins (the […] supernatant was diluted with acetonitrile (3:1 acetonitrile:plasma supernatant) to give pre-crashed Beagle plasma supernatant); and (3) in 10× diluted Beagle urine, diluted in water. The term “pre-crashed plasma” refers to plasma supernatant, obtained in the centrifugation step described above.
Samples were considered stable if their concentrations were within ±20% of nominal. These samples met acceptable criteria for stability and results are presented below, in Tables 5, 6, and 7, showing the % bucillamine remaining in Beagle dog plasma (Table 5), plasma supernatant (Table 6), and urine (Table 7).

[6] = Short- and long-term stability of bucillamine in Beagle dog plasma supernatant (pre-crashed plasma); assay type: in vitro ADME
Procedure: as §6
(§7) Stability Testing: Finally, short-term and long-term stability of bucillamine in Beagle dog plasma, pre-crashed plasma (plasma supernatant), and urine were assessed using two bucillamine concentrations (50 ng/mL or 500 ng/mL) under each of the following two conditions: (1) storage on the bench top for 4 hours and (2) frozen at −80° C. for up to one month. Samples were considered stable if their concentrations were within ±20% of nominal. These samples met acceptable criteria for stability and results are presented below, in Tables 5, 6, and 7, showing the % bucillamine remaining in Beagle dog plasma (Table 5), plasma supernatant (Table 6), and urine (Table 7).

[7] = Short- and long-term stability of bucillamine in Beagle dog plasma; assay type: in vitro ADME
Procedure: as §7

[8] = Bucillamine urinary recovery after oral or intraduodenal dosing regimens; assay type: in vivo, male Beagle dogs; details: for % of the dose (unchanged drug) found in urine, on average: n=3 dogs
Procedure: as §1, §2, §3, §4
as §5, with “flush. Upon completion of the dosing, the animals were taken off the isoflurane and allowed to recover from anesthesia. Time points began upon completion of the entire dose procedure. Following each blood sampling time point, 15 mL of water was given to each dog via syringe. Approximately 30 minutes prior to the 0 hour blood collection, each dog received a subcutaneous injection of 60 mL of saline (a 30 mL injection into each of two different sites) for hydration.” for “flush.”

[9] = Free bucillamine plasma concentration after oral or intraduodenal dosing regimens; assay type: in vivo, male Beagle dogs; details: for maximum plasma concentrations of free bucillamine (average): n=3 dogs
Procedure: as §1, §2, §3, §4
as §5, with “flush. Upon completion of the dosing, the animals were taken off the isoflurane and allowed to recover from anesthesia. Time points began upon completion of the entire dose procedure. Following each blood sampling time point, 15 mL of water was given to each dog via syringe. Approximately 30 minutes prior to the 0 hour blood collection, each dog received a subcutaneous injection of 60 mL of saline (a 30 mL injection into each of two different sites) for hydration.” for “flush.”

[10] = majority of patients; 1,800 mg bucillamine over 7 days; 72 hours post-dose; without rescue drug; cited from earlier work
[11] = Example 3: cystine stone formation in cystinuria patients, about 1 week; assay type: in vivo, human; details: Days 2-8, enterically-coated bucillamine oral 100 mg x 8 or x 12 times/day
Procedure: This Example describes a study to confirm the improved efficacy of reducing cystine stone formation in cystinuria patients who develop at least one stone per week using standard Thiola® dosing. Study Design: […] The patients are dosed as follows: Day 1: No treatment; an X-ray is taken of the kidney and bladder. Days 2-8: To simulate extended release, enterically-coated bucillamine is orally administered at either 100 mg x 8 times/day (i.e., every three hours) or 100 mg x 12 times/day (i.e., every two hours). A simple enteric coating is used that avoids release in the stomach. Also, 24 hour urine cystine capacity is measured, that is, all urine over a 24-hour period, starting from the time of the first dose, is collected and used to measure urinary cystine concentration. Day 8: X-ray examination of Day 1 is repeated.

[12] = cited from earlier work; remark: listed apart in the source
[13] = cited from earlier work; remark: listed apart in the source
[14] = Leg 1 (Q12H): PO, single 30 mg/kg dose
[15] = Leg 2: PO 30 mg/kg as two 15 mg/kg doses at 0 and 6 h
[16] = Leg 3 (Q3H): PO 30 mg/kg as four 7.5 mg/kg doses at 0, 3, 6, 9 h
[17] = Leg 4: PO 30 mg/kg as six 5 mg/kg doses at 0, 2, 4, 6, 8, 10 h
[18] = 50 ng/mL (low), -80 C freezer for 1 week
[19] = 50 ng/mL (low), bench top (RT) for 4 hours
[20] = 500 ng/mL (high), -80 C freezer for 1 week
[21] = 500 ng/mL (high), bench top (RT) for 4 hours
[22] = Leg 5: ID, single 30 mg/kg dose

Structure (SMILES): CC(C)(S)[C@@H](N)C(=O)O [D-penicillamine]
solubility of the di-sulfide complex formed, relative to cystine [1]: 50 times
patients with severe side effects / who cannot tolerate the drug [2]: 50-70%

maximum plasma concentrations of total bucillamine (average) [3, 14]: 24400 ± 8253 ng/mL
maximum plasma concentrations of total bucillamine (average) [3, 15]: 33533 ± 2139 ng/mL
maximum plasma concentrations of total bucillamine (average) [3, 16]: 25133 ± 3500 ng/mL
maximum plasma concentrations of total bucillamine (average) [3, 17]: 23800 ± 819 ng/mL
maximum plasma concentrations of total bucillamine (average) ([3]; Leg 5 (Q12H): ID, single 30 mg/kg dose): 19940 ± 11015 ng/mL
% Bucillamine Remaining in Beagle Dog Urine ([5]; High (2500 ng/mL), -80 C freezer for 1 week): 102%
% Bucillamine Remaining in Beagle Dog Urine ([5]; High (2500 ng/mL), -80 C freezer for 2 week): 101%
% Bucillamine Remaining in Beagle Dog Urine ([5]; High (2500 ng/mL), -80 C freezer for 4 week): 96.3%
% Bucillamine Remaining in Beagle Dog Urine ([5]; High (2500 ng/mL), bench top (RT) for 4 hours): 102%
% Bucillamine Remaining in Beagle Dog Urine ([5]; Low (250 ng/mL), -80 C freezer for 1 week): 97.7%
% Bucillamine Remaining in Beagle Dog Urine ([5]; Low (250 ng/mL), -80 C freezer for 2 week): 90.9%
% Bucillamine Remaining in Beagle Dog Urine ([5]; Low (250 ng/mL), -80 C freezer for 4 week): 88.9%
% Bucillamine Remaining in Beagle Dog Urine ([5]; Low (250 ng/mL), bench top (RT) for 4 hours): 93.7%
% Bucillamine Remaining in Beagle Dog Plasma Supernatant [6, 18]: 94.3%
% Bucillamine Remaining in Beagle Dog Plasma Supernatant ([6]; 50 ng/mL (low), -80 C freezer for 2 week): 99.1%
% Bucillamine Remaining in Beagle Dog Plasma Supernatant ([6]; 50 ng/mL (low), -80 C freezer for 4 week): 107%
% Bucillamine Remaining in Beagle Dog Plasma Supernatant [6, 19]: 105%
% Bucillamine Remaining in Beagle Dog Plasma Supernatant [6, 20]: 97.2%
% Bucillamine Remaining in Beagle Dog Plasma Supernatant ([6]; 500 ng/mL (high), -80 C freezer for 2 week): 110%
% Bucillamine Remaining in Beagle Dog Plasma Supernatant ([6]; 500 ng/mL (high), -80 C freezer for 4 week): 119%
% Bucillamine Remaining in Beagle Dog Plasma Supernatant [6, 21]: 117%
% Bucillamine Remaining in Beagle Dog Plasma [7, 18]: 114%
% Bucillamine Remaining in Beagle Dog Plasma ([7]; 50 ng/mL (low), -80 C freezer for 2 weeks): 108%
% Bucillamine Remaining in Beagle Dog Plasma ([7]; 50 ng/mL (low), -80 C freezer for 4 weeks): 114%
% Bucillamine Remaining in Beagle Dog Plasma [7, 19]: 110%
% Bucillamine Remaining in Beagle Dog Plasma [7, 20]: 96.4%
% Bucillamine Remaining in Beagle Dog Plasma ([7]; 500 ng/mL (high), -80 C freezer for 2 weeks): 97.3%
% Bucillamine Remaining in Beagle Dog Plasma ([7]; 500 ng/mL (high), -80 C freezer for 4 weeks): 107%
% Bucillamine Remaining in Beagle Dog Plasma [7, 21]: 96.9%
% of the dose (unchanged drug) found in urine, on average ([8]; Leg 1: PO, single 30 mg/kg dose): 57.3±25.8%
% of the dose (unchanged drug) found in urine, on average [8, 15]: 54.5±6.63%
% of the dose (unchanged drug) found in urine, on average [8, 16]: 25.8±14.0%
% of the dose (unchanged drug) found in urine, on average [8, 17]: 16.1±5.65%
% of the dose (unchanged drug) found in urine, on average [8, 22]: 20.2±7.51%
share of the drug recovered in urine excreted within the first 4 hours ([8]; Q12H schedule, PO single 30 mg/kg dose, FIG. 22, n=2 dogs): 80%
time at which maximum plasma concentrations of free bucillamine were observed [9, 14]: 2 hours post dosing
maximum plasma concentrations of free bucillamine (average) [9, 14]: 2437 ± 728 ng/mL
maximum plasma concentrations of free bucillamine (average) [9, 15]: 3957 ± 1226 ng/mL
maximum plasma concentrations of free bucillamine (average) [9, 16]: 4327 ± 1127 ng/mL
maximum plasma concentrations of free bucillamine (average) [9, 17]: 1820 ± 471 ng/mL
maximum plasma concentrations of free bucillamine (average) [9, 22]: 1187 ± 656 ng/mL
Structure (SMILES): CC(C)(S)C(=O)N[C@@H](CS)C(=O)O [bucillamine, N-(2-mercapto-2-methylpropionyl)-L-cysteine]
urine cystine levels over Days 5-6 compared with Days 1-2 of uncoated (immediate-release) dosing [4]: consistently lower
reduction in target joint pain scores from baseline [10]: at least 50%
additional cystine stones on X-ray of Day 8 compared to Day 1 [11]: no additional stones

Structure (SMILES): CC(S)C(=O)NCC(=O)O (stereo not drawn) [tiopronin, alpha-mercaptopropionylglycine]
cases/patients in which the drug is discontinued ([12]; due to adverse reactions, need for frequent dosing, poor efficacy): about 30%
cystinuria patients failed by the medication (continue forming stones) ([12]; human, in vivo): 85%
patients who achieve and maintain therapeutic success ([12]; human, in vivo): 15%
period of effectiveness in reducing cystine urine levels ([12]; human, in vivo): 2 to 4 h
time of primary urine excretion wave after oral administration ([13]; immediate-release tiopronin, oral): 3 to 4 h
time after administration at which urine excretion of free tiopronin and mixed-sulfide tiopronin mostly occurs ([13]; in vivo): 2 to 4 h
free tiopronin excreted in urine within 2 hours of administration ([13]; within 2 hours of Thiola administration): ≤ 95%
